Where two headings read alike, the source gives them in different places.
Legend:
[1] = tested on: acetic acid-induced writhing; experiment: Acetic acid-induced writhing; type: in vivo, mice
Method: Behavioral tests. We measured nocifensive responses elicited by i.p. injection of acetic acid in male Swiss and C57B1/6 (wild-type or FAAH-deficient) mice^40, intraplantar injection of carrageenan in male Swiss mice^20, intraplantar injection of formalin in male Sprague-Dawley rats^41, and sciatic nerve ligation in male Swiss mice^39.
Behavioral tests Acetic acid-induced writhing was measured in Swiss mice or C57B1/6 mice (wild-type and FAAH-deficient), as described^40 with minor modifications. Briefly, the mice were acclimated to the experimental room for 2 h. Each animal was injected with acetic acid (150 μL, 0.6% in saline) and placed into a glass cylinder. Abdominal stretches (extension of body and hind limbs) were counted for 20 min, starting 5 min after acetic acid injection. […] Behavior was scored by an observer blinded to the treatment conditions. Formalin-induced nociception was assessed in Sprague-Dawley rats, as described^41. The rats were singly housed and kept in a shared holding room under a 12:12 h light:dark cycle. […] Immediately after formalin injection, the rats were returned to the observation container and nocifensive behavior was recorded for 60 min with a video camera. Recordings were analyzed by observers blinded to treatment conditions. Nocifensive behavior was measured continuously for 60 min^41. […] Each 5-min bin was analyzed for time spent (1) lifting and (2) licking or biting the injected paw. Nocifensive behavior was analyzed using the composite pain score weighted scores technique (CPS-WST1,2) calculated for the entire time of observation (0-60 min) and, separately, for the first (0-10 min) and second phase (10-60 min) of the behavioral response^46. The area under the curve (AUC) corresponding to CPS-WST1,2 was calculated using the trapezoidal rule. […] Paw volumes were measured using a plethysmometer (Ugo Basile, Milan, Italy). […] Mechanical hyperalgesia was assessed by measuring the latency(s) to withdraw the paw from a constant mechanical pressure exerted onto its dorsal surface. […]

[2] = Tissue distribution of URB937 by LC/MS; type: in vivo; settings: mice, 1 mg-kg^-1, i.p.
Method: Tissue analyses. We performed tissue extractions and liquid chromatography/mass spectrometry analyses of endocannabinoids as described^38. Similar procedures were utilized for the tissue extraction and LC/MS quantification of URB937, as detailed further below.
Tissue extractions Mice were sacrificed with isoflurane and tissues were collected and immediately frozen in liquid nitrogen. Frozen tissues were weighed and homogenized in methanol (1 mL) containing [^2H4]-anandamide, [^2H4]-PEA, [^2H8]-2-AG, and N-cyclohexyl biphenyl-3-ylacetamide as internal standards. Analytes were extracted with chloroform (2 vol) and washed with water (1 vol). Organic phases were collected and dried under nitrogen. The non-fractionated organic extract was used for quantification of URB937. For other analyses the organic extract was fractionated by open-bed silica gel column chromatography, as described^43. Briefly, the extract was dissolved in chloroform and loaded onto small glass columns packed with Silica Gel G (60˜A 230-400 Mesh ASTM; Whatman, Clifton, N.J.). […]
Mobile phase A consisted of methanol containing 0.25% acetic acid, 5 mM ammonium acetate; mobile phase B consisted of water containing 0.25% acetic acid, 5 mM ammonium acetate. […] Na^+ adducts ([M+Na^+]) of analytes and internal standards were monitored in the selective ion-monitoring mode. Limit of quantification was 0.4 pmol.

[3] = molecular target: FAAH (Mus musculus (Mouse), UniProt O08914); experiment: FAAH inhibition ex vivo after systemic administration in mice; settings: mouse, ip
Sequence of FAAH (O08914 whole entry): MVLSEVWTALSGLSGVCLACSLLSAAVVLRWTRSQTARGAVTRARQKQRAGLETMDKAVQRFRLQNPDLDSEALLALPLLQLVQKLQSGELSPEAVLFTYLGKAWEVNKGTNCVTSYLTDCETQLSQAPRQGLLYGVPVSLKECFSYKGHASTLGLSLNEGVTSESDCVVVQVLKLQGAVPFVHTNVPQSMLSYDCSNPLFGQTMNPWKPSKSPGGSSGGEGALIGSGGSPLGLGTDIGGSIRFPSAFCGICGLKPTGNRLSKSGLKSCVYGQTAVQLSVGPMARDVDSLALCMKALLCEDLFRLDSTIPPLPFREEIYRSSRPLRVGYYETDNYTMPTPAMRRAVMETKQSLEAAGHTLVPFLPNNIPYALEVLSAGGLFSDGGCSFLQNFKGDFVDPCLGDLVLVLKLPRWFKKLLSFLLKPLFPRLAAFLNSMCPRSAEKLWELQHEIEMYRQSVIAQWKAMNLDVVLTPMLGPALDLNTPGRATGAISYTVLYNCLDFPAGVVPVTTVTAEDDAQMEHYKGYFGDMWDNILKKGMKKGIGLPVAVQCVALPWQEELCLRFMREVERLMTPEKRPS
Method: Drug preparation for in vivo experiments Drugs were dissolved in polyethylene glycol 400/Tween-80/saline (1/1/18; by volume) and administered by i.p. (5-10 mL-kg^−1) or s.c. injection (10 mL-kg^−1).

Structure (SMILES): NC(=O)c1cccc(-c2cc(OC(=O)NC3CCCCC3)ccc2O)c1 [Compound 1b, cyclohexylcarbamic acid 3′-carbamoyl-6-hydroxybiphenyl-3-yl ester]
- nocifensive behavior when administered alone ([1]; mice, 1 mg-kg^-1, without acetic acid): no detectable nocifensive behavior
- acetic acid-induced writhing ED50 ([1]; mice, subcutaneous administration, 1 h before acetic acid): 0.1 mg/kg
- reduction of acetic acid-induced writhing in FAAH-deficient mice ([1]; mutant FAAH-deficient mice, 1 mg-kg^-1): absent
- URB937 level in brain tissue after systemic administration [2]: undetectable
- inhibition at 1 mg/kg ([3]; Mice, 1 mg/Kg i.p., Colon, read-out: % of FAAH inhibition, Colon): 84.7 ± 0.3%
- inhibition at 1 mg/kg ([3]; Mice, 1 mg/Kg i.p., Duodenum, read-out: % of FAAH inhibition, Duodenum): 84.3 ± 1.4%
- inhibition at 1 mg/kg ([3]; Mice, 1 mg/Kg i.p., Hypothalamus, read-out: % of FAAH inhibition, Hypothalamus): 18.4 ± 13.8%
- inhibition at 1 mg/kg ([3]; Mice, 1 mg/Kg i.p., Illeum, read-out: % of FAAH inhibition, Illeum): 86.8 ± 2.4%
- inhibition at 1 mg/kg ([3]; Mice, 1 mg/Kg i.p., Jejunum, read-out: % of FAAH inhibition, Jejunum): 90 ± 1.4%
- inhibition at 1 mg/kg ([3]; Mice, 1 mg/Kg i.p., Kidney, read-out: % of FAAH inhibition, Kidney): 88.3 ± 1%
- inhibition at 1 mg/kg ([3]; Mice, 1 mg/Kg i.p., Liver, read-out: % of FAAH inhibition, Liver): 91.7 ± 0.7%
- inhibition at 1 mg/kg ([3]; Mice, 1 mg/Kg i.p., Spinal cord, read-out: % of FAAH inhibition, Spinal cord): 17.7 ± 10.6%
- inhibition at 1 mg/kg ([3]; Mice, 1 mg/Kg i.p., Spleen, read-out: % of FAAH inhibition, Spleen): 72.5 ± 0.7%
- inhibition at 1 mg/kg ([3]; ex vivo 1 h after a single injection in mice (1 mg-kg^-1, i.p.), brain, read-out: FAAH Inhibition in brain (%)): -3 ± 8%
